Measured values as given in publication PMC6894070, “The Plasmodium falciparum Hsp70-x chaperone assists the heat stress response of the malaria parasite” (The FASEB Journal, 2019).

Key:
Hsc70 = target: T1, Hsc70 (Homo sapiens, UniProt P11142); settings: 5 uM chaperone, 1 mM ATP, Mg2+, pH 8, 25 C
T1 construct: gene HSPA8

PfHsp70-x [1] = target: T2, PfHsp70-x (Plasmodium falciparum, UniProt A0A143ZXN1); test: MESG-coupled ATPase assay; format: biochemical; settings: 5 uM chaperone alone, 1 mM ATP, pH 8, 25 C
T2 construct: gene PF3D7_0831700; aa 25-679, export signal peptide excluded; codon-optimized synthetic DNA; N-terminal His6 tag cut by 3C protease; expressed in E. coli Rosetta2(DE3)

PfHsp70-x [2] = target: T2, PfHsp70-x; test: MESG-coupled ATPase assay; format: biochemical; settings: 5 uM chaperone alone, 1 mM ATP, pH 8, 25 C; remark: listed apart in the source

T1 sequence (P11142 whole entry): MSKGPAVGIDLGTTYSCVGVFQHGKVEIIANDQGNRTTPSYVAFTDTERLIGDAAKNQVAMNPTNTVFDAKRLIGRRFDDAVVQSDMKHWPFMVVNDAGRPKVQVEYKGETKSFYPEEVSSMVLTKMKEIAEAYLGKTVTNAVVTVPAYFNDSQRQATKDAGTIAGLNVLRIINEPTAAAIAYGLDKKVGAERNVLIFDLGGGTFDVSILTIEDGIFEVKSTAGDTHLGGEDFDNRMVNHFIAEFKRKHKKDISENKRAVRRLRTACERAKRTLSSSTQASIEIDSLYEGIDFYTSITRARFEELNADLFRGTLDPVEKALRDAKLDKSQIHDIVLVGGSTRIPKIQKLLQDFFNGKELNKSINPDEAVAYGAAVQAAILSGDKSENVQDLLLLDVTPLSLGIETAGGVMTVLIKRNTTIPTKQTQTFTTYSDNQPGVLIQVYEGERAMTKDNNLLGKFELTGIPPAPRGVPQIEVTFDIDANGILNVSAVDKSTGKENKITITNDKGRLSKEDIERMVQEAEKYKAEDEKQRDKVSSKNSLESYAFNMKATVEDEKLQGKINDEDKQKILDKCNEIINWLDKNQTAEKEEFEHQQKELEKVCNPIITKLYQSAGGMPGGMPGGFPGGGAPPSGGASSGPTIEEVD

Structure (SMILES): Nc1ncnc2c1ncn2[C@@H]1O[C@H](COP(=O)(O)OP(=O)(O)OP(=O)(O)O)[C@@H](O)[C@H]1O [ATP]
- MESG-coupled ATPase assay (Hsc70): fold changes in ATP hydrolysis activities of PfHsp70-x (A, B) or human Hsc70 (C, D)

Structure (SMILES): CC1(C)OC2=C(CC1Br)C(=O)C(=O)c1ccccc12 (stereo not drawn) [BBL, bromo-β-lapachona]
- apparent half-maximal inhibitory concentration (PfHsp70-x [1]): BBL inhibited PfHsp70-x in our ATPase assays with low micromolar apparent half-maximal inhibitory concentration

Structure (SMILES): CN(C)c1ccc2nc3ccc(=[N+](C)C)cc-3sc2c1 [methylene blue]
- half-maximal inhibitory concentration (PfHsp70-x [2]): methylene blue inhibits both basal and stimulated PfHsp70-x activity
